Measured values published in PMC12951562, “SH2scan: Mapping SH2 Domain-Ligand Binding Selectivity for Inhibitors and Degraders” (Journal of Medicinal Chemistry, 2026).
Like-named read-outs stand apart in the source and are kept apart here. Non-standard residues stand in square brackets, D forms with d. Residues, ends and D or L forms follow the SMILES beside them. *: point of attachment. pY = N[C@@H](Cc1ccc(OP(=O)(O)O)cc1)C(=O)O; Caffeoyl = O=C(/C=C/c1ccc(O)c(O)c1)*

Tests used:
Experiment in all cases: biochemical
Type in all cases: binding
[1] = biological target: T1, TNS3 (Homo sapiens, UniProt Q68CZ2); conditions: for remaining activity at 10 µM: read-out: percent of DMSO vehicle control
T1 construct: made in house; host or cells: HEK293 (transient transfection), unpurified extract
T1 sequence (Q68CZ2 1-1445): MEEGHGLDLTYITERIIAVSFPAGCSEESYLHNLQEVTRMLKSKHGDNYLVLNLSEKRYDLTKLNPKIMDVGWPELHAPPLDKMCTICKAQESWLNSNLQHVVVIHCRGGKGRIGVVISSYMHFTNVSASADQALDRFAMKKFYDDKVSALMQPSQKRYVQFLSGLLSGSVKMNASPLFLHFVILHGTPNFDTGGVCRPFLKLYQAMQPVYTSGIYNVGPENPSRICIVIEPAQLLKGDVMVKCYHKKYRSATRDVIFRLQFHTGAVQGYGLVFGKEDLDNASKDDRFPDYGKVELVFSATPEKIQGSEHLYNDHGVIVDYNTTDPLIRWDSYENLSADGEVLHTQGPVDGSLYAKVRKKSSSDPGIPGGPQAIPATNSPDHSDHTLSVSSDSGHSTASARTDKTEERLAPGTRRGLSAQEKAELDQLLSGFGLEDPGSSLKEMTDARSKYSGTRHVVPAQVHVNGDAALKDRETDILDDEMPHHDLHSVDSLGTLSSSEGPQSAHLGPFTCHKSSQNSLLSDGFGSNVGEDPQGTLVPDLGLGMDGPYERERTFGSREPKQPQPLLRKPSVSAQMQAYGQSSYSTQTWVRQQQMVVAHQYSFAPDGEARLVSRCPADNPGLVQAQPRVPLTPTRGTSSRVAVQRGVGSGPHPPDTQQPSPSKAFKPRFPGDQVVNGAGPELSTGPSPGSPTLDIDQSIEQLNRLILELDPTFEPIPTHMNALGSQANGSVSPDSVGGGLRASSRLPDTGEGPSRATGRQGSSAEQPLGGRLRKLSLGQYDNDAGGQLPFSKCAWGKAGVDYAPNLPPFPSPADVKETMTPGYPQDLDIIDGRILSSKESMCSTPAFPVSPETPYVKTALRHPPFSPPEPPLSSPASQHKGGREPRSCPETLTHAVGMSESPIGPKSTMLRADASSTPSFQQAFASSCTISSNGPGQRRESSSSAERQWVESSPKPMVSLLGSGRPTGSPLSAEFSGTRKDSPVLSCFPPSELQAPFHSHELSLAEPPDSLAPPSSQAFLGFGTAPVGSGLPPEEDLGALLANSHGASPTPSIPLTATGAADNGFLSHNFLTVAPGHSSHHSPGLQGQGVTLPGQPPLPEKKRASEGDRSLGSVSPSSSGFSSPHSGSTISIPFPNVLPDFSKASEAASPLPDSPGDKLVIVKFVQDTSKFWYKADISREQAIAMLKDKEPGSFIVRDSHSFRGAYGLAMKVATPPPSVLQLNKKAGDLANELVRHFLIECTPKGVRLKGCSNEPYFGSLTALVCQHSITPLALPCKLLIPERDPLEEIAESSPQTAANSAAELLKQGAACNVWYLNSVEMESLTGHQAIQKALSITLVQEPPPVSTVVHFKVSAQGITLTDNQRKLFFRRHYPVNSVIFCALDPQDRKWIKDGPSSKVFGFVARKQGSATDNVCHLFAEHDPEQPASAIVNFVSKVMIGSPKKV

[2] = biological target: T2, CBLC (Homo sapiens, UniProt Q9ULV8); conditions: for percent of DMSO vehicle control at 10 µM / remaining activity at 10 µM: read-out: percent of DMSO vehicle control
T2 construct: the DNA-tagged SH2 domain concentrations used in this study were <0.1 nM; made in house; host or cells: HEK293 (transient transfection; unpurified extract)
T2 sequence (Q9ULV8 219-321 limits assumed): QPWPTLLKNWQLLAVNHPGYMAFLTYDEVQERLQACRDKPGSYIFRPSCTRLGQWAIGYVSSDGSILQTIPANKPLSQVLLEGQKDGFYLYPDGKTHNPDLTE

[3] = biological target: T3, FER (Homo sapiens, UniProt P16591); conditions: for percent of DMSO vehicle control at 10 µM / remaining activity at 10 µM: read-out: percent of DMSO vehicle control
T3 construct: the DNA-tagged SH2 domain concentrations used in this study were <0.1 nM; made in house; host or cells: HEK293 (transient transfection; unpurified extract)
T3 sequence (P16591 460-550 limits assumed): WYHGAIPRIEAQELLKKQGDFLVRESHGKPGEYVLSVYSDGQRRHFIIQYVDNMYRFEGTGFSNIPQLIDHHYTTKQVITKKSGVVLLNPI

[4] = biological target: T4, FYN (Homo sapiens, UniProt P06241); conditions: for percent of DMSO vehicle control at 10 µM / remaining activity at 10 µM: read-out: percent of DMSO vehicle control
T4 construct: the DNA-tagged SH2 domain concentrations used in this study were <0.1 nM; made in house; host or cells: HEK293 (transient transfection; unpurified extract)
T4 sequence (P06241 149-246 limits assumed): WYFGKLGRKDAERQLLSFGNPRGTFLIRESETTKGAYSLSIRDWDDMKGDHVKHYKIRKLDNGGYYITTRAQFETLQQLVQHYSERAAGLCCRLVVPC

[5] = biological target: T5, SHC1 (Homo sapiens, UniProt P29353); conditions: for remaining activity at 10 µM: read-out: percent of DMSO vehicle control
T5 construct: made in house; host or cells: HEK293 (transient transfection), unpurified extract
T5 sequence (P29353 1-583): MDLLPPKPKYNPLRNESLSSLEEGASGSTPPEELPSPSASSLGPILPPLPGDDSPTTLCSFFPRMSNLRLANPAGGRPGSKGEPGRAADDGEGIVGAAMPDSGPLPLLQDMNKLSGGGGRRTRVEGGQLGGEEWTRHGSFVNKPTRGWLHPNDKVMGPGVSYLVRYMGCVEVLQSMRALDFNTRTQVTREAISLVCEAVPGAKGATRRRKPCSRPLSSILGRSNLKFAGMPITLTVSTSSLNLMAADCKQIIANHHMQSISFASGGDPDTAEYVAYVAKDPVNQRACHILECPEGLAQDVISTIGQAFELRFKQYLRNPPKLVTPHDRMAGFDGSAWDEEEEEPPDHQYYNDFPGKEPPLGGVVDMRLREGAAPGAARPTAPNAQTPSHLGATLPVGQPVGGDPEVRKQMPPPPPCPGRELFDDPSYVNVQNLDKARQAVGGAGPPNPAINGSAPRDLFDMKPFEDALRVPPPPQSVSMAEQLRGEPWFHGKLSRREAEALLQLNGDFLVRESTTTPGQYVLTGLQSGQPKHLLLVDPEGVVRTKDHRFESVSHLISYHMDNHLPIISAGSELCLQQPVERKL

[6] = biological target: T6, SHC3 (Homo sapiens, UniProt Q92529); conditions: for remaining activity at 10 µM: read-out: percent of DMSO vehicle control
T6 construct: made in house; host or cells: HEK293 (transient transfection), unpurified extract
T6 sequence (Q92529 1-594): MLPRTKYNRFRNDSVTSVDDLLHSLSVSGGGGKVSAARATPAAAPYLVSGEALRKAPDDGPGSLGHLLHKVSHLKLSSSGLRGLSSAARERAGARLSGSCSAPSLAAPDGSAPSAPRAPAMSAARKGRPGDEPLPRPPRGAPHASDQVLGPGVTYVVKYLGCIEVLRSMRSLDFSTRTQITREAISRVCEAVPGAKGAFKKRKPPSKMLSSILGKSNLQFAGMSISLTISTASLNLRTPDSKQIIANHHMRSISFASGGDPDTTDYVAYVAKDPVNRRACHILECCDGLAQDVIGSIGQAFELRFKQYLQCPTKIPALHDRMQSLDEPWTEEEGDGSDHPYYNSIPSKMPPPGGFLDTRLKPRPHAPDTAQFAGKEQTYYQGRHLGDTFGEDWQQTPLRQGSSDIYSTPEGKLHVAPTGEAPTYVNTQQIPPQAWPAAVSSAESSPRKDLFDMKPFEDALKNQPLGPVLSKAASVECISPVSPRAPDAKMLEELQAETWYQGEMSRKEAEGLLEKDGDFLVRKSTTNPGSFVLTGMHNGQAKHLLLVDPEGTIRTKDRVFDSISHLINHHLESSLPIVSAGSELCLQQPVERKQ

Structure (SMILES)	Kd [1]	percent of DMSO vehicle control at 10 µM [2]	percent of DMSO vehicle control at 10 µM [3]	percent of DMSO vehicle control at 10 µM [4]	remaining activity at 10 µM [5]	remaining activity at 10 µM [6]	remaining activity at 10 µM [1]	remaining activity at 10 µM ([2]; primary screen, 10 μM)	remaining activity at 10 µM ([3]; primary screen, 10 μM)	remaining activity at 10 µM ([4]; primary screen, 10 μM)	remaining activity at 10 µM ([5]; primary screen, 10 μM)	remaining activity at 10 µM ([6]; primary screen, 10 μM)	remaining activity at 10 µM ([1]; primary screen, 10 μM)	Kd ([3]; dose-response, read-out: KD)	other results
CC[C@H](C)[C@H](NC(=O)[C@H](CO)NC(=O)[C@H](CC(C)C)NC(=O)[C@H](CCCNC(=N)N)NC(=O)[C@H](CO)NC(=O)[C@H](CS)NC(C)=O)C(=O)N[C@@H](Cc1ccc(OP(=O)(O)O)cc1)C(=O)N[C@@H](CC(=O)O)C(=O)N[C@@H](CC(N)=O)C(=O)N[C@H](C(=O)N1CCC[C@H]1C(=O)NCC(N)=O)C(C)C [Ac-CSRLSIpYDNVPG-NH2] (Ac-CSRLSI[pY]DNVPG-NH2)	0.12 ± 0.0289 µM														
CC[C@H](C)[C@H](NC(=O)[C@H](CCC(=O)O)NC(=O)[C@H](CCC(=O)O)NC(=O)[C@H](Cc1ccc(OP(=O)(O)O)cc1)NC(C)=O)C(=O)N[C@@H](CCC(=O)O)C(N)=O [Ac-pYEEIE-NH2] (Ac-[pY]EEIE-NH2)															percent of DMSO vehicle control ([2]; primary screen, 10 μM): 97.4±7.1%; percent of DMSO vehicle control ([3]; primary screen, 10 μM): 37.4%; Kd [4]: 3.3 µM; percent of DMSO vehicle control ([4]; primary screen, 10 μM): 21.2±2.5%; percent of DMSO vehicle control ([5]; primary screen, 10 μM): 105.0%; percent of DMSO vehicle control ([6]; primary screen, 10 μM): 98.9±6.8%; percent of DMSO vehicle control ([1]; primary screen, 10 μM): 83.2±4.0%
CC(=O)N[C@@H](Cc1ccc(CP(=O)(O)O)cc1)C(=O)NC1(C(=O)N[C@@H](CC(N)=O)C(=O)NCCCc2c(O)ccc3ccccc23)CCCCC1 [CGP78850]	0.62 µM	128 ± 29.6%	136 ± 7.5%	53.7 ± 4.6%	49.8 ± 6.2%	29.2 ± 2.8%	9.8 ± 0.1%								Kd [6]: 1.8 ± 0.24 µM
CC[C@H](C)[C@H](NC(=O)[C@H](CCC(=O)O)NC(=O)[C@H](CCC(=O)O)NC(=O)[C@H](Cc1ccc(OP(=O)(O)O)cc1)NC(=O)/C=C/c1ccc(O)c(O)c1)C(=O)N[C@@H](CCC(=O)O)C(=O)O [Caffeic acid-pYEEIE] (Caffeoyl-[pY]EEIE-OH)	1 ± 0.21 µM	0.1%	0.8 ± 0.8%	0%	0%	0%	1.8 ± 0.6%								Kd [2]: 0.037 ± 0.023 µM; Kd [3]: 0.062 ± 0.086 µM; Kd [4]: 0.00053 µM; Kd [5]: 0.32 ± 0.28 µM; Kd [6]: 0.13 ± 0.12 µM
O=C(CCl)Nc1cccc(CNC(=O)[C@H](Cc2ccc(OP(=O)(O)O)cc2)NC(=O)Cc2ccc(F)cc2)c1 [MN551]								43 ± 3.8%	1.1 ± 0.2%	83.2 ± 0.4%	112%	91.2 ± 1.9%	48.5 ± 7.3%		
NC(=O)CC[C@H](NC(=O)[C@@H]1CC[C@@H]2CCN(C(=O)CCCCCC#Cc3cccc4c3CN(C3CCC(=O)NC3=O)C4=O)C[C@H](NC(=O)c3cc4cc(C(F)(F)P(=O)(O)O)ccc4[nH]3)C(=O)N21)C(=O)NC(c1ccccc1)c1ccccc1 (stereo partly shown) [SD-36]		113 ± 4.5%	74.4 ± 18.6%	106%	62 ± 8.8%	74.5 ± 0.8%	57.6 ± 6%								
CC(=O)N1CC[C@H]2CC[C@@H](C(=O)N[C@@H](CCC(N)=O)C(=O)NC(c3ccccc3)c3ccccc3)N2C(=O)[C@@H](NC(=O)c2cc3cc(C(F)(F)P(=O)(O)O)ccc3[nH]2)C1 [SI-109]		106%	107%	97.3%	112%	122%	128%								
C/C(=C\C(=O)N[C@H](C(=O)N1CCC[C@H]1C(=O)N(c1ccccc1)c1ccc(I)cc1)C(C)(C)C)c1ccc(OP(=O)(O)O)cc1 [STAT6-IN-1]								3.3 ± 0.1%	8.5 ± 0.1%	48.2 ± 2.1%	48.2 ± 4.5%	35.3 ± 4.8%	57 ± 10.1%	1.4 ± 0.071 µM	Kd ([2]; dose-response, read-out: KD): 1.8 ± 0.49 µM; Kd ([6]; dose-response, read-out: KD): 3.6 ± 0.57 µM
CC(C)(C)[C@H](NC(=O)/C=C/c1ccc(OP(=O)(O)O)cc1)C(=O)N1CCC[C@H]1C(=O)N(c1ccccc1)c1ccc(I)cc1 [STAT6-IN-3]								34.7 ± 1.3%	10.7 ± 34%	51.8 ± 33.2%	62.5 ± 13.9%	50.6 ± 6.4%	55.6 ± 12.1%	8 ± 8.7 µM	Kd ([2]; dose-response, read-out: KD): 2.8 ± 0.52 µM
O=C(COc1ccc2cc(C(=O)Nc3ccccc3)ccc2c1)NCc1ccc(OP(=O)(O)O)c(OP(=O)(O)O)c1 [Stafib-1]								100%	10.8%	92.1 ± 35.5%	67.3 ± 22.1%	87 ± 14.4%	77.8 ± 9%	1.9 µM	
